Substitutions are numbered along the chain they refer to. pIC50, pKi: −log10 of the molar value.
Columns and labels:
RCasp3 = biological target: T1, RCasp3 (Homo sapiens, UniProt P42574); experiment: in vitro fluorogenic Casp3 activity assay (Ac-DEVD-AFC); format: biochemical; details: 20 nM RCasp3; 1 μM Q-VD-OPh or 0.1 μM bortezomib; Fig. 5c
T1 construct: Active Casp6 and Casp3 represented >99% of the purified enzyme; purchased Enzo Lifesciences
T1 sequence (P42574 29-175 limits assumed): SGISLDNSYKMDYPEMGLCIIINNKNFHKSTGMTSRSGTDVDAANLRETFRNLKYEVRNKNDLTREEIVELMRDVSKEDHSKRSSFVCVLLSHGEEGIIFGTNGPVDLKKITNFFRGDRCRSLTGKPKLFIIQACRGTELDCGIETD
T1 sequence (P42574 176-277 limits assumed): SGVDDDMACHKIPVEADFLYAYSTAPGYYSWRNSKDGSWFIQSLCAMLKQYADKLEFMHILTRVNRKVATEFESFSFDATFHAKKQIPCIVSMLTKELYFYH

[1] = biological target: T2, DEVDase activity in mouse liver protein extracts (Mus musculus, UniProt P70677); experiment: DEVDase activity in mouse liver protein extracts with added inhibitors; format: biochemical; details: inhibitor added to extracts: 1 μM Q-VD-OPh, 0.1 μM bortezomib or 0.1 μM epoxomicin
T2 construct: Casp3 activity was assessed in liver protein extracts from mice; from tissue; host or cells: mouse liver (C57BL6/J), protein extracts
T2 sequence (P70677 29-175 limits assumed): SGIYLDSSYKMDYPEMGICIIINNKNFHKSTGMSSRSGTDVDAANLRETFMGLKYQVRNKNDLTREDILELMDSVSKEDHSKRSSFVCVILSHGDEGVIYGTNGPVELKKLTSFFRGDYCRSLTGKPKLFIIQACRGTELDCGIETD
T2 sequence (P70677 176-277 limits assumed): T1 sequence (P42574 176-277 limits assumed) with V3T, D5E, D6E, H10Q, A46S, Q50L, D53H, F77L, A79S
Method: (§1) Activity assays for RCasp1 (Biovision, Millpitas, CA, USA) and RCasp3 (Enzo Lifesciences) used Z-Tyr-Val-Ala-Asp-7-Amino-4-trifluoromethylcoumarin (z-YVAD-AFC: Enzo LifeSciences,), and Ac-Asp-Glu-Val-Asp-7-Amino-4-trifluoromethylcouramin (Ac-DEVD-AFC: Enzo LifeSciences), respectively. To confirm that these substrates report caspase activity and not proteasomal caspase-like enzyme activity, 1 μM pan-caspase inhibitor, Q-VD-OPh (Sigma-Aldrich) or 0.1 μM proteasome inhibitor, bortezomib (Calbiochem, MA, USA) were tested on 20 nM RCasp3 or 40–60 μg of mouse liver protein extracts.
(§2) The caspase-like activity of the proteasome was measured using 10 μM Ac-Nle-Pro-Nle-Asp-AMC (Ac-nLPnLD-AMC, Enzo Lifesciences) as described for caspase activity assays except for the use of 10 mM DTT and a 7-amino-4-methylcoumarin (AMC, Sigma-Aldrich) standard curves. Mouse liver protein extracts were treated with 0.1 μM of epoxomicin (Enzo Lifesciences), bortezomib, 1 μM of Q-VD-OPh, or equal volumes of DMSO for 20 mins on ice before measuring proteasome or caspase activities.

RCasp6 [2] = biological target: T3, RCasp6 (Homo sapiens, UniProt P55212); experiment: inhibitor kinetic studies (Michaelis-Menten / Lineweaver-Burk) on RCasp6; format: biochemical; details: for mode of inhibition: Lineweaver Burk plot, Km increasing, Vmax the same; for pKi: competitive inhibition model, nonlinear regression, Ac-VEID-AFC substrate, 10 nM RCasp6
T3 construct: The zymogen is cleaved at three distinct sites to remove the prodomain and linker regions in order to obtain an active enzyme; His tag (C); made in house; host or cells: E. coli BL21 (DE3)pLysS
T3 sequence (P55212 24-179 limits assumed): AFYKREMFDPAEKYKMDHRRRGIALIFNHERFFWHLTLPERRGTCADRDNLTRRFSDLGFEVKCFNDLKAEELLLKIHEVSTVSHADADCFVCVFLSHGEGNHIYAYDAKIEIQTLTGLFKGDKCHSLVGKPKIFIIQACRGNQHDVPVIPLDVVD
T3 sequence (P55212 194-293 limits assumed): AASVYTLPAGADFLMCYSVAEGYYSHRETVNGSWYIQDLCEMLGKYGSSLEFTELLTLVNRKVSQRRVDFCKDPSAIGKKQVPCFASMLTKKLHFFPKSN

HCT116 cells = experiment: cell viability (microscopy and MTT) in HCT116 cells; format: cell-based, human; details: 2 hours; for concentration at which cells retained morphology and confluence comparable to PBS-treated controls: HCT116, phase contrast microscopy
Method: (§3) HCT116 cells, plated at a density of 1 × 10^5 cells/well and human neurons, plated at a density of 6 × 10^6 cells/well on poly-L-lysine were treated with PBS or phenothiazines for 2 hours. The media was replaced before acquiring images with the Nikon Eclipse Ti microscope and the NIS-Elements (Version 3.10) software. MTT assays: Cells were plated in 96-well plates at 1 × 10^4 or 1 × 10^5 cells per well for 24 hours before treatments with phenothiazines or PBS. After 2 hours, fresh media containing […] MTT (3-(4,5-dimethylthiazol-2-yl)-2,5-diphenyltetrazolium bromide) (Sigma-Aldrich) was added and the cells were incubated for 4 hours at 37 °C in 5% CO2. The media was removed, formazan crystals were dissolved in DMSO, and the absorbance was measured at 560 nm and 670 nm using the BioTek Synergy H4 plate reader.

human primary neurons = experiment: cell viability (microscopy) in human primary neurons; format: cell-based; details: phase contrast microscopy, 2 hours
Method: as §3

RCasp6 [3] = biological target: T3, RCasp6; experiment: in vitro tubulin cleavage assay with RCasp6; format: biochemical; details: 20 nM RCasp6, 10 μM DTT, 10 hours, western blot densitometry; read-out: IC50, cleavage of tubulin by RCasp6 (Tub∆Casp6 relative to total tubulin)
Method: Phenothiazines were mixed with 20 nM RCasp6 or RCasp3, 10 μM DTT, and 7.5 nM BSA in SB and 36 μg HCT116 protein extracts added before incubation at 37 °C for 10 hours, western blotting, and densitometry for tubulin-cleaved by Casp6 (Tub∆Casp6) and total tubulin as described in the western blot section. The IC50 was determined by a non-linear regression fit for log inhibitor vs caspase activity with a Hill slope of −1 using GraphPad Prism 5.0.
(§4) The 10630 (1:10,000) and GN60622 (1:10,000) neoepitope antibodies against the p20 subunit of active Casp6[16] and Tub∆Casp6[23], respectively, were generated in our laboratory. The β-actin clone AC-15 (1:5000, Sigma-Aldrich), Casp6 p10 clone B93-4 (1:250, BD Canada, Mississauga, ON, CA), Casp3, and full-length α-tubulin (1:1000, Cell Signaling Technology Inc., Danvers, MA, USA) antibodies were diluted in 5% non-fat dry milk in Tris-buffered saline containing 0.1% Tween-20 (Sigma-Aldrich). […] Secondary anti-mouse conjugated to alkaline phosphatase (Jackson Immunoresearch Laboratories Inc., West Grove, PA) was developed with nitro-blue tetrazolium (ThermoSci) and 5-bromo-4-chloro-3′-indolyphosphate (ThermoSci).

RCasp6 [4] = biological target: T3, RCasp6; experiment: in vitro fluorogenic Casp6 activity assay (Ac-VEID-AFC); format: biochemical; details: 10 μM DTT; Fig. 1c
Casp6 [5] = biological target: T4, Casp6 (Homo sapiens, UniProt P55212); experiment: Casp6 activity in serum-deprived human primary neuron cultures; format: cell-based; set-up: endogenous in cells; host or cells: human primary neurons from fetal brain cortex; details: serum-deprived neurons, 2 hrs, 100 μM methylene blue, 50 μM azure A, 10 μM azure B; for Tub∆Casp6/Tub levels: vs PBS-treated serum-deprived neurons
T4 sequence (P55212 24-179 limits assumed): T3 sequence (P55212 24-179 limits assumed)
T4 sequence (P55212 194-293 limits assumed): T3 sequence (P55212 194-293 limits assumed)

Casp6 [6] = biological target: T4, Casp6; experiment: Casp6 activity in Casp6p20p10-transfected HCT116 cells; format: cell-based; set-up: for active Casp6p20 subunit (p20), full length Casp6 lacking its pro-domain; Casp6p20p10 (p20p10); expressed in transfected cells; host or cells: HCT116 human colon carcinoma cells; details: transfected HCT116, 2 hrs; 100 μM and 1 mM methylene blue, 50 μM azure A, 10 μM and 100 μM azure B
Method: as §1
Human colon carcinoma (HCT116) cells, cultured as recommended (ATCC: Manassas, VA, USA), were transfected with 1 μg pCep4βCasp6p20p10 and 8 μg polyethyleneimine (Polysciences Inc., Warrington, PA, USA), and grown 24 hrs before treatment with PBS and phenothiazines for 2 hours. Human primary neurons were cultured from fetal brain cortical areas obtained under ethical guidelines and approved by the McGill University’s institutional review board as previously described. Human primary neurons plated in poly-L-lysine -coated 6-well plates at a density of 3 × 10^6 cells/mL were serum-deprived for 2 hours in the presence of phenothiazines or an equivalent volume of PBS. Proteins were harvested in cell lysis buffer (CLB; 50mM HEPES, 0.1% CHAPS, 0.1mM EDTA).
as §4

[7] = biological target: T5, catalytic Cys163 of Casp6 (Homo sapiens, UniProt P55212); experiment: LC/MS/MS analysis of Casp6 Cys163 oxidation; details: RCasp6 treated with 2 mM compound, 45 min, 37 °C
T5 construct: The zymogen is cleaved at three distinct sites to remove the prodomain and linker regions in order to obtain an active enzyme; His tag (C); made in house; host or cells: E. coli BL21 (DE3)pLysS
T5 sequence (P55212 24-179 limits assumed): T3 sequence (P55212 24-179 limits assumed)
T5 sequence (P55212 194-293 limits assumed): T3 sequence (P55212 194-293 limits assumed)

[8] = biological target: T6, caspase-like activity of the proteasome (Mus musculus, UniProt Q60692); experiment: proteasome assay (Ac-nLPnLD-AMC); format: biochemical; details: mouse liver protein extracts, 0.1 μM bortezomib; supplementary Fig. S2
T6 construct: nLPnLDase activity in mouse liver protein extracts; from tissue; host or cells: mouse liver protein extracts
T6 sequence (Q60692 1-238): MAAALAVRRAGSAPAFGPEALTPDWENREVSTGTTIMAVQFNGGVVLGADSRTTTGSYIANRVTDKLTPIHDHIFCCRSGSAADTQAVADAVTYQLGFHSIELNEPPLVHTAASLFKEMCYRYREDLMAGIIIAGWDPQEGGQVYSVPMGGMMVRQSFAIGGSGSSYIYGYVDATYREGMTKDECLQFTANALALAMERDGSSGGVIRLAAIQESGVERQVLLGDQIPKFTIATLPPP
Method: as §2, with “activities. […]” for “activities.”
equated at 100% activity of the enzyme. Activity assays for recombinant Casp3 was done similarly to recombinant Casp6, except the substrate used was Ac-Asp-Glu-Val-Asp-7-Amino-4-trifluoromethylcouramin (Ac-DEVD-AFC: Enzo Life Sciences, NY, USA).
Proteasome assay: The caspase-like activity of the proteasome was measured using the substrate Ac-Nle-Pro-Nle-Asp-AMC (Enzo LifeSciences, NY, USA) at a final concentration of 10 µM in Stennicke’s buffer in the presence of 10 mM DTT. […]
Statistical Analysis: For Caspase-3 activity assays, data represent the mean ± SEM of 3 livers from 3 animals and was analyzed using a one-way ANOVA with Dunnett’s post hoc test (*** p < 0.001 in DMSO, and ### p < 0.001 in bortezomib) comparing all samples to LPS/GALN-treated mice in the absence of methylene blue, while proteasome assays were analyzed using […]

Row | SMILES | RCasp3 activity in vitro (RCasp3) | DEVDase activity in LPS/GALN-treated mouse liver protein extracts [1] | mode of inhibition (RCasp6 [2]) | pKi (RCasp6 [2]) | concentration at which cells retained morphology and confluence comparable to PBS-treated controls (HCT116 cells) [μM] | concentration above which cell body size and axonal fragmentation increased (human primary neurons) | pIC50 (RCasp6 [3]) | inhibition of Casp6 activity (RCasp6 [4]) | VEIDase activity (Casp6 [5]) | Tub∆Casp6/Tub levels (Casp6 [5]) | Casp6 activity on the Ac-VEID-AFC peptide substrate (Casp6 [6]) | further results
1 | CN(C)c1ccc2nc3ccc(N)cc3[s+]c2c1 [azure A, (7-aminophenothiazin-3-ylidene)-dimethylazanium;chloride] |  |  | competitive | 6.38 | 50 | above 50 μM | 6.30 | inhibited Casp6 activity in a dose dependent manner | significantly inhibited | significantly decreased | trend towards inhibition but it did not reach statistical significance | concentration above which toxicity was shown (HCT116 cells; HCT116, MTT assay): above 50 μM; concentration necessary for a significant inhibition of Casp6 activity (RCasp6 [4]): 10 nM
2 | CNc1ccc2nc3ccc(N(C)C)cc3[s+]c2c1 [azure B, dimethyl-[7-(methylamino)phenothiazin-3-ylidene]azanium;chloride] |  |  | competitive | 5.10 | 100 | > 10 µM | 4.46 | inhibited Casp6 activity in a dose dependent manner | significantly inhibited | significantly decreased | significantly inhibited | concentration up to which well tolerated (HCT116 cells; HCT116, MTT assay): up to 100 μM; concentration at which reduction in Casp6 activity was observed (RCasp6 [4]): 100 pM; sequenced peptides containing oxidized Cys163 [7]: 7.7%
3 | CC[C@H](C)[C@H](NC(=O)[C@H]([C@@H](C)CC)N(C)C(C)=O)C(=O)N[C@H](C(=O)N[C@@H](CC(C)C)C(=O)[C@@]1(C)CO1)[C@@H](C)O [epoxomicin] |  | nor was Casp3 DEVDase activity affected |  |  |  |  |  |  |  |  |  | 

Now from value to compound, other results behind:

Row | RCasp3 activity in vitro (RCasp3) | SMILES | DEVDase activity in LPS/GALN-treated mouse liver protein extracts [1] | mode of inhibition (RCasp6 [2]) | pKi (RCasp6 [2]) | concentration at which cells retained morphology and confluence comparable to PBS-treated controls (HCT116 cells) [μM] | concentration above which cell body size and axonal fragmentation increased (human primary neurons) | pIC50 (RCasp6 [3]) | inhibition of Casp6 activity (RCasp6 [4]) | VEIDase activity (Casp6 [5]) | Tub∆Casp6/Tub levels (Casp6 [5]) | Casp6 activity on the Ac-VEID-AFC peptide substrate (Casp6 [6]) | further results
4 | abrogated | CC(C)[C@H](NC(=O)c1ccc2ccccc2n1)C(=O)N[C@@H](CC(=O)O)C(=O)COc1c(F)cccc1F [Q-VD-OPh] | abrogated |  |  |  |  |  |  |  |  |  | 
5 | did not inhibit | CC(C)C[C@H](NC(=O)[C@H](Cc1ccccc1)NC(=O)c1cnccn1)B(O)O [bortezomib] |  |  |  |  |  |  |  |  |  |  | nLPnLDase proteasomal activity [8]: significantly inhibited

From paper PMC4585840 (Scientific Reports, 2015)
